# Assay results published in patent US8278343B2, “Pyrrolidines” (Pfizer Inc., priority 2008, dated 2012).
# Biological target: T1, recombinant human EP-2 receptor (Homo sapiens, UniProt P43116)
# T1 construct: stably transfected with full length cDNA encoding human Prostaglandin E2; expressed in transfected cells
# Experiment: In vitro antagonist potency against recombinant human prostaglandin E2 (EP-2) receptor in CHO cells (cAMP, Protocol 1)
# Type: cell-based
# Details: CHO cells expressing recombinant human EP-2 receptor, stimulated with 5 nM PGE2; cAMP readout; Ki by Cheng-Prusoff equation; read-out: EP2 Ki
# Procedure: 1.0 Measurement of In Vitro Antagonist Potency (IC50) of Compounds Against Recombinant Human Prostaglandin E2 Receptor in CHO Cells
# The prostaglandin E2 (EP-2) receptor is Gs coupled and agonism of the receptor by PGE2 results in activation of intracellular adenylate cyclase enzymes that synthesise the second messenger signalling molecule, adenosine 3′,5′-cyclic monophosphate (cAMP). CHO cells expressing the recombinant human EP-2 receptor are stimulated with PGE2 (5 nM) equivalent to approximately […] values to give the maximal cAMP signal. Decreases in cAMP levels following treatment of stimulated recombinant EP-2 cells with potential antagonist compounds were measured and potency (IC50) calculated as follows.
# A Chinese hamster ovary (CHO) cell line stably transfected with full length cDNA encoding human Prostaglandin E2 was established using standard molecular biology methods. Test compounds were dissolved in dimethyl sulphoxide (DMSO) at 4 mM. 11 point half log unit increment dilution series of test compound were prepared in DMSO then diluted 1 in 40 in a buffer comprised of phosphate buffered saline (PBS) and 0.05% pluronic F-127 surfactant. Freshly cultured cells at 80-90% confluence were harvested and re-suspended in 90% growth media/10% DMSO. The cells were frozen using a planar freezer and stored in frozen aliquots in cryovials in liquid nitrogen until the day of the experiment. A vial of cells was defrosted in a 37° C. water bath for 2 min, then transferred to 10 ml of Dulbecco's Modified Eagle's Medium (DMEM). The cells were then centrifuged for 5 min at 1000 g and the pellet re-suspended at 1,000,000 cells/ml in DMEM. 5,000 cells (5 ul) were added to 5 ul of the compound dilution series in a 384 well assay plate and pre-incubated for 30 min at 37° C. 5 ul of agonist (15 nM PGE2 in PBS to give 5 nM FAC) was added and plates further incubated for 90 min at 37° C. The relative cAMP concentration in each well was then measured using a β-galactosidase enzyme fragment complementation method purchased in kit form as the Discoverx cAMP II kit from GE Healthcare, UK. […] Sigmoidal curves were fitted to plots of log10 inhibitor concentration vs percent effect. IC50 estimates were determined as the concentration of test compound giving an effect half way between the bottom and top asymptotes of the sigmoidal dose response curve. Each experiment included an IC50 determination for the literature compound as a standard to track assay consistency and allow fair comparison between values obtained in different experiments. The EC50 of PGE2 is used in combination with the ligand concentration in the assay to determine Ki values for antagonist dose responses using the Cheng-Prusoff equation. Consequently an agonist dose response curve is carried out for each experiment using the same incubation as the antagonist plate.
# T1 sequence (P43116 whole entry): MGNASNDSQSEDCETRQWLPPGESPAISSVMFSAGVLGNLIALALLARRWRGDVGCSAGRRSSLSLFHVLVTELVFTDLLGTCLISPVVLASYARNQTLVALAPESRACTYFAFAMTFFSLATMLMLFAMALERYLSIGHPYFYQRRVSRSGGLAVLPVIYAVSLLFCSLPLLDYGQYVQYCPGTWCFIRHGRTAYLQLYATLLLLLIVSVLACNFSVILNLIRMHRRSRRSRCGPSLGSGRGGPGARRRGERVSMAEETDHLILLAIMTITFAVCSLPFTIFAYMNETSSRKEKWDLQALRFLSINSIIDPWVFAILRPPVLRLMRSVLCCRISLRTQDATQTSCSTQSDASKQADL
smiles,measurement,value
"COc1ccccc1C(=O)N1CCC(COc2ccc(-c3ccc(C#N)cc3)nc2)(C(=O)O)C1 (single isomer, unassigned) [Example 62]",Ki,0.868 µM
"COc1ccccc1C(=O)N1CCC(COc2ccc(-c3ncc(F)cn3)cc2)(C(=O)O)C1 (single isomer, unassigned) [Example 63]",Ki,0.174 µM
"COc1ccccc1C(=O)N1CCC(COc2ccc(-c3ncc(F)cn3)cc2)(C(=O)O)C1 (single isomer, unassigned) [Example 64]",Ki,0.621 µM
"COc1ccccc1C(=O)N1CCC(COc2ccc(-c3ncc(C#N)cn3)cc2)(C(=O)O)C1 (single isomer, unassigned) [Example 65]",Ki,0.175 µM
"COc1ccccc1C(=O)N1CCC(COc2ccc(-c3ccc(C#N)cc3)cc2)(C(=O)O)C1 (single isomer, unassigned) [Example 66]",Ki,0.0033 µM
"COc1ccccc1C(=O)N1CCC(COc2ccc(-c3ccc(C#N)cc3)cc2)(C(=O)O)C1 (single isomer, unassigned) [Example 67]",Ki,0.0857 µM
"COc1ccccc1C(=O)N1CCC(COc2ccc(-c3ccc(F)cc3)cc2)(C(=O)O)C1 (single isomer, unassigned) [Example 68]",Ki,0.0146 µM
"COc1ccccc1C(=O)N1CCC(COc2ccc(-c3ccc(F)cc3)cc2)(C(=O)O)C1 (single isomer, unassigned) [Example 69]",Ki,0.309 µM
"COc1ccccc1C(=O)N1CCC(COc2ccc(-c3ccc(Cl)cc3)nc2)(C(=O)O)C1 (single isomer, unassigned) [Example 70]",Ki,0.0227 µM
"COc1ccccc1C(=O)N1CCC(COc2ccc(-c3ccc(Cl)cc3)nc2)(C(=O)O)C1 (single isomer, unassigned) [Example 71]",Ki,0.0239 µM
"COc1ccccc1C(=O)N1CCC(COc2ccc(-c3ncc(Cl)cn3)cc2)(C(=O)O)C1 (single isomer, unassigned) [Example 72]",Ki,0.0255 µM
"COc1ccccc1C(=O)N1CCC(COc2ccc(-c3ncc(Cl)cn3)cc2)(C(=O)O)C1 (single isomer, unassigned) [Example 73]",Ki,0.459 µM
"COc1ccccc1C(=O)N1CCC(COc2cnc(-c3ccc(Cl)cc3)nc2)(C(=O)O)C1 (single isomer, unassigned) [Example 74]",Ki,0.0356 µM
"COc1ccccc1C(=O)N1CCC(COc2cnc(-c3ccc(Cl)cc3)nc2)(C(=O)O)C1 (single isomer, unassigned) [Example 75]",Ki,0.504 µM
"COc1ccccc1C(=O)N1CCC(COc2ccc(-c3ccc(F)cc3)nc2)(C(=O)O)C1 (single isomer, unassigned) [Example 76]",Ki,0.158 µM
"O=C(C1CCC1)N1CCC(COc2ccc(-c3ccc(F)cc3)cc2)(C(=O)O)C1 (single isomer, unassigned) [Example 79]",Ki,0.0213 µM
"O=C(C1CCC1)N1CCC(COc2ccc(-c3ccc(F)cc3)cc2)(C(=O)O)C1 (single isomer, unassigned) [Example 80]",Ki,0.344 µM
"O=C(C1CCCC1)N1CCC(COc2ccc(-c3ccc(F)cc3)cc2)(C(=O)O)C1 (single isomer, unassigned) [Example 81]",Ki,0.0555 µM
"O=C(C1CCCC1)N1CCC(COc2ccc(-c3ccc(F)cc3)cc2)(C(=O)O)C1 (single isomer, unassigned) [Example 82]",Ki,0.524 µM
"O=C(C1CC1)N1CCC(COc2ccc(-c3ccc(F)cc3)cc2)(C(=O)O)C1 (single isomer, unassigned) [Example 83]",Ki,0.119 µM
"O=C(C1CC1)N1CCC(COc2ccc(-c3ccc(F)cc3)cc2)(C(=O)O)C1 (single isomer, unassigned) [Example 84]",Ki,0.438 µM
"Cc1ccc(OC(=O)N2CCC(COc3ccc(-c4ccc(F)cc4)cc3)(C(=O)O)C2)cc1 (single isomer, unassigned) [Example 86]",Ki,0.00536 µM
"Cc1ccc(OC(=O)N2CCC(COc3ccc(-c4ccc(F)cc4)cc3)(C(=O)O)C2)cc1 (single isomer, unassigned) [Example 87]",Ki,0.225 µM
"O=C(Oc1ccc(Cl)cc1)N1CCC(COc2ccc(-c3ccc(F)cc3)cc2)(C(=O)O)C1 (single isomer, unassigned) [Example 88]",Ki,0.0149 µM
"O=C(Oc1ccc(Cl)cc1)N1CCC(COc2ccc(-c3ccc(F)cc3)cc2)(C(=O)O)C1 (single isomer, unassigned) [Example 89]",Ki,0.252 µM
"O=C(Oc1ccc(F)cc1)N1CCC(COc2ccc(-c3ccc(F)cc3)cc2)(C(=O)O)C1 (single isomer, unassigned) [Example 90]",Ki,0.00416 µM
"O=C(Oc1ccc(F)cc1)N1CCC(COc2ccc(-c3ccc(F)cc3)cc2)(C(=O)O)C1 (single isomer, unassigned) [Example 91]",Ki,0.0374 µM
"COc1ccc(OC(=O)N2CCC(COc3ccc(-c4ccc(F)cc4)cc3)(C(=O)O)C2)cc1 (single isomer, unassigned) [Example 92]",Ki,0.00781 µM
"COc1ccc(OC(=O)N2CCC(COc3ccc(-c4ccc(F)cc4)cc3)(C(=O)O)C2)cc1 (single isomer, unassigned) [Example 93]",Ki,0.165 µM
"COc1ccccc1OC(=O)N1CCC(COc2ccc(-c3ccc(F)cc3)cc2)(C(=O)O)C1 (single isomer, unassigned) [Example 94]",Ki,0.431 µM
"COc1ccc(NC(=O)N2CCC(COc3ccc(-c4ccc(F)cc4)cc3)(C(=O)O)C2)cc1 (single isomer, unassigned) [Example 95]",Ki,0.00103 µM
"COc1ccc(NC(=O)N2CCC(COc3ccc(-c4ccc(F)cc4)cc3)(C(=O)O)C2)cc1 (single isomer, unassigned) [Example 96]",Ki,0.178 µM
"COc1cccc(NC(=O)N2CCC(COc3ccc(-c4ccc(F)cc4)cc3)(C(=O)O)C2)c1 (single isomer, unassigned) [Example 97]",Ki,0.00189 µM
"COc1cccc(NC(=O)N2CCC(COc3ccc(-c4ccc(F)cc4)cc3)(C(=O)O)C2)c1 (single isomer, unassigned) [Example 98]",Ki,0.26 µM
"O=C(Nc1ccccc1Cl)N1CCC(COc2ccc(-c3ccc(F)cc3)cc2)(C(=O)O)C1 (single isomer, unassigned) [Example 99]",Ki,0.00199 µM
"O=C(Nc1ccccc1Cl)N1CCC(COc2ccc(-c3ccc(F)cc3)cc2)(C(=O)O)C1 (single isomer, unassigned) [Example 100]",Ki,0.518 µM
"O=C(Nc1ccc(Cl)cc1)N1CCC(COc2ccc(-c3ccc(F)cc3)cc2)(C(=O)O)C1 (single isomer, unassigned) [Example 101]",Ki,0.00359 µM
"O=C(Nc1ccc(Cl)cc1)N1CCC(COc2ccc(-c3ccc(F)cc3)cc2)(C(=O)O)C1 (single isomer, unassigned) [Example 102]",Ki,0.16 µM
"O=C(Nc1ccccc1F)N1CCC(COc2ccc(-c3ccc(F)cc3)cc2)(C(=O)O)C1 (single isomer, unassigned) [Example 103]",Ki,0.00377 µM
"O=C(Nc1ccccc1F)N1CCC(COc2ccc(-c3ccc(F)cc3)cc2)(C(=O)O)C1 (single isomer, unassigned) [Example 104]",Ki,0.392 µM
"COc1ccccc1C(=O)N1CCC(COc2ccc(-c3ccc(C#N)cn3)cc2)(C(=O)O)C1 (centres unmarked) [Example 3, 3 ((4-(5-cyanopyridin-2-yl)phenoxy)methyl)-1-(2-methoxybenzoyl)pyrrolidine-3-carboxylic acid]",Ki,0.0244 µM
